Data set [1] in a line: Solubility limit in functional assay. It is filed as physicochemical. To be noted: read-out: highest soluble test concentration.
For data set [2], the system named is human α3β4 nAChRs. To be noted: tested at concentrations up to 100 µM; cited from earlier work.
For data set [3], the system named is hα4β2 nAChRs. The note with it: introduction, low µM range; cited from earlier work.
The target of data set [4] is T1, hα4β2WT nAChRs (Homo sapiens, UniProt P17787+P43681).
T1 construct: Human nAChR α4 and β2 full-length cDNAs in the vector pSP64 (poly A); expressed in transfected cells; host or cells: HEK ts201 cells
T1 sequence (P43681 29-627 limits assumed): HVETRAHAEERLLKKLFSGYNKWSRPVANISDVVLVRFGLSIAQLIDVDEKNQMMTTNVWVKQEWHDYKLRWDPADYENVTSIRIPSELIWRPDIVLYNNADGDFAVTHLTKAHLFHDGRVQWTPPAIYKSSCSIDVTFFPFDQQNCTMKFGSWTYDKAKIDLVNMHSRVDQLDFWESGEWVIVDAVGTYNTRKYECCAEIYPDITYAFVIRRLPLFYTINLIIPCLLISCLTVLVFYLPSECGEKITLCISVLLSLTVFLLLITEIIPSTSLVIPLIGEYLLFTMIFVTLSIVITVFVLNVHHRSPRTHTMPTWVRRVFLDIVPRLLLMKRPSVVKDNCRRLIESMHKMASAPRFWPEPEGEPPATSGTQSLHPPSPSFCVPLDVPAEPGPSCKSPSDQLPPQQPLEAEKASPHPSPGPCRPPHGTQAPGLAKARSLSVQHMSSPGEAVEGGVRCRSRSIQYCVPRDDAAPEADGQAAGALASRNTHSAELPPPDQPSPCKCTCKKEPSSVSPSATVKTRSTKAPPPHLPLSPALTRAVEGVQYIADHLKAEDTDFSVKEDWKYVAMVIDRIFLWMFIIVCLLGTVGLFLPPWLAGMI
T1 sequence (P17787 26-502): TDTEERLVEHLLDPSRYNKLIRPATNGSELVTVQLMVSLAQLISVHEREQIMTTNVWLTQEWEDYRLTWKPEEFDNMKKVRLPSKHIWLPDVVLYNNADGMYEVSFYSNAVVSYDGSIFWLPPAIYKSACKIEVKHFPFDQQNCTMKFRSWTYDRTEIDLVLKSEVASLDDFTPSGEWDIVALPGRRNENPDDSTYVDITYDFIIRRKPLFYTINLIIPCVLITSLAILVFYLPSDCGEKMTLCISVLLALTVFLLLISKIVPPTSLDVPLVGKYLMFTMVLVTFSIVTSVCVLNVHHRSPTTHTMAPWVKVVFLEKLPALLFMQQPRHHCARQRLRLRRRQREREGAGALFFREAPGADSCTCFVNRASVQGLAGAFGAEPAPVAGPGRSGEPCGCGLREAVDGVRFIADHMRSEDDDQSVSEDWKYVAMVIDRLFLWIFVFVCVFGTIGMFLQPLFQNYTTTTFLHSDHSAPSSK
Description: Calcium accumulation assay, HEK ts201 cells transiently expressing wild-type hα4β2 nAChRs. It is filed as cell-based. As to the method: (§1) Calcium accumulation assays were performed as described previously with slight modifications. Briefly, HEK ts201 cells, transiently expressing hα4β2WT nAChRs or hα4β2M nAChRs, were plated on 96-well plates at a density of 2.6×10^5 cells per well. Twenty-four hours after plating, the cells were washed and then incubated with fluo-4-AM for 30 minutes at 37°C followed by 30 minutes at 24°C. After incubation, cells were washed and fluorescence was measured at ∼0.7 second intervals using a fluid handling integrated fluorescence plate reader (Flex Station, Molecular Devices, Sunnyvale, CA). […] Functional responses were quantified by first calculating the net fluorescence changes (the difference between control sham-treated and control agonist-treated groups). […] Results were calculated from the number of observations (n) performed in triplicate. Curve fitting was performed by Prism software (GraphPad, San Diego, CA). EC50 values, IC50 values, and Hill coefficients were obtained by averaging values generated from each individual concentration-response curve. EC50 values and IC50 values were expressed as geometric means (95% confidence limits). Experimental values were compared using the t-test (p<0.005), as indicated.
(§2) Human nAChR α4 and β2 full-length cDNAs in the vector pSP64 (poly A) were obtained from Dr. Jon Lindstrom (University of Pennsylvania) and used as the template for mutagenesis (β2) and for transient expression (α4 and β2). A single mutation was made in the β2 subunit using the Quik Change Lightning Multi Site-Directed Mutagenesis Kit (Stratagene) following the manufacturers instructions. Primers were designed using the QuikChange Primer Design Program (Stratagene) and Oligo 4.0 (National Biosciences) and synthesized by Invitrogen. Primers were designed to replace the threonine residue at position 58 in the hβ2 subunit with a lysine found at the similar position in the hβ4 subunit. The following primer was designed to change the threonine (ACC) at position 58 in the β2 subunit to lysine (AAG): β2 mutant 5′-[…]-3′. The underlined nucleotides defined the mutation. Primers were also designed to replace the phenylalanine residue at position 118 in the hβ2 subunit with a leucine found at the similar position in the hβ4 subunit. The following primer was designed to change the phenylalanine (TTC) at position 118 in the β2 subunit to leucine (TTG): 5′-[…]-3′ and 5′- […]-3′. […] The mutant hβ2 cDNAs were subcloned into pcDNA 3.1+Zeo (Invitrogen). The wild type hα4 and hβ2 cDNAs were also subcloned into the pcDNA 3.1+ and pcDNA 3.1+ Zeo vectors respectively. All cDNA clones were completely sequenced using a 3730 DNA Analyzer (Applied Biosystems) at the Ohio State University Plant-Microbe Genomics Facility. DNAs used for transfection were purified using PureLink High Pure Mini or Midi Kits (Invitrogen). HEK ts201 cells (kind gift of Dr. Rene Anand, Ohio State University Department of Pharmacology) were transiently transfected with wild-type hα4 mutant hβ2 or wild-type hα4β2 cDNAs using Lipofectamine 2000 (Invitrogen) in 60 mm dishes. After 8 hours, the cells were replated into 96 well dishes for the intracellular calcium accumulation assays.

The target of data set [5] is T2, hα4β2-F118L nAChRs (Homo sapiens, UniProt P17787+P43681, F144L).
T2 construct: Human nAChR α4 and β2 full-length cDNAs in the vector pSP64 (poly A); expressed in transfected cells; host or cells: HEK ts201 cells
T2 sequence (P43681 27-627, stated change not applied): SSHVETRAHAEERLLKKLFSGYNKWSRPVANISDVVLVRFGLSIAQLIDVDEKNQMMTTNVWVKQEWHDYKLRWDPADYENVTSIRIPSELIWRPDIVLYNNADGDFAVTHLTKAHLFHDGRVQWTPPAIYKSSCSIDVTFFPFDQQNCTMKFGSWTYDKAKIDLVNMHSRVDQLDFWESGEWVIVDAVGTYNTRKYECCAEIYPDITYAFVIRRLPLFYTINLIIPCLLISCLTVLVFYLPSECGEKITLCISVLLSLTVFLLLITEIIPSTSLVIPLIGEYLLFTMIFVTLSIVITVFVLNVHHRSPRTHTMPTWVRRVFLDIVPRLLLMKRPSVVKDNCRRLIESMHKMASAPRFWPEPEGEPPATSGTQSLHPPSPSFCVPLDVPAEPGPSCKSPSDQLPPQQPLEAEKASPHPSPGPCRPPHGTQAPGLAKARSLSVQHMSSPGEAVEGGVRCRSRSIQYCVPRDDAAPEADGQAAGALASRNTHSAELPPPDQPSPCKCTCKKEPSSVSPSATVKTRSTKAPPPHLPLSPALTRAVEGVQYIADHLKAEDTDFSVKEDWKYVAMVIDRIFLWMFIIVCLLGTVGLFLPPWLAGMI
T2 sequence (P17787 26-502 F144L): as the sequence (P17787 26-502) above, with F119L counted along it
Briefly: Calcium accumulation assay, HEK ts201 cells transiently expressing hα4β2 β2-F118L mutant nAChRs. Type of data set: cell-based. As to the method:
as §1, §2

Data set [6] deals with T3, hα4β2-T58K nAChRs (Homo sapiens, UniProt P17787+P43681, T84K).
T3 construct: Human nAChR α4 and β2 full-length cDNAs in the vector pSP64 (poly A); expressed in transfected cells; host or cells: HEK ts201 cells
T3 sequence (P43681 27-627, stated change not applied): as the sequence (P43681 27-627, stated change not applied) above
T3 sequence (P17787 26-502 T84K): as the sequence (P17787 26-502) above, with T59K counted along it
Briefly: Calcium accumulation assay, HEK ts201 cells transiently expressing hα4β2 β2-T58K mutant nAChRs. It is filed as cell-based. As to the method:
as §1, §2

Data set [7] has as its target recombinant hα4β2 receptors. Also on record: method as in PMID 8996215, PMID 11044726, PMID 9454827. To be noted: read-out: expt. potency, EC50, cited from earlier work.
Data set [8] has as its target recombinant hα3β4 receptors. Also on record: method as in PMID 8996215, PMID 11044726, PMID 9454827. To be noted: read-out: expt. potency, EC50, cited from earlier work.

Where two headings read alike, the source gives them in different places.

Data on 6 compounds can be found in article PMC3174232, “Identification of a Negative Allosteric Site on Human α4β2 and α3β4 Neuronal Nicotinic Acetylcholine Receptors” (PLoS ONE, 2011).

By IC50 is commonly meant the concentration that inhibits the measured activity by half. In general, EC50 refers to the midpoint of the concentration-response curve.

Take `O=C(OCC1CCCN(CCCc2ccccc2)C1)c1ccccc1-c1ccccc1` (stereo not shown) [KAB-18]: the solubility in data set [1] was no more than 100 µM. Further, the “functional activity on human α3β4 nAChRs” value in data set [2] was “no functional activity”. Moreover, the “potency (inhibition of hα4β2 nAChRs)” value in data set [3] is 10 µM. The “n H, Hill coefficient” value is −1.2 in data set [4] (hα4β2-WT nAChRs) and −1.0 in data set [6] (hα4β2-T58K nAChRs). Further, the IC50 in data set [4] (read-out: IC50) is 8.5 µM; in data set [5], greater than 100 µM; in data set [6] (read-out: IC50), 71.8 µM. In data set [5] (at concentrations up to 100 µM), the “inhibitory activity on F118L mutant” value is recorded as “loss of inhibitory activity”. For the same compound, the “decrease in potency, β2T58K mutant vs wild-type” value in data set [6] (ratio of IC50 71.8 µM (T58K) to 8.5 µM (WT)) is given as “eight-fold decrease”.

For `CC(=O)OCC[N+](C)(C)C` [acetylcholine], the concentration for a half-maximal effect (EC50) is 100 µM in data set [7] (hα4β2) and 203 µM in data set [8] (hα3β4).

For the compound `COc1cc2c3cc1Oc1cc(ccc1O)C[C@@H]1c4c(cc(OC)c(O)c4Oc4ccc(cc4)C[C@@H]3N(C)CC2)CC[N+]1(C)C` [d-tubocurarine], the IC50 in data set [4] was determined as 6.3 µM; in data set [5], 6.5 µM; in data set [6], 6.2 µM. Moreover, the “n H, Hill coefficient” value in data set [4] is listed as −1.0; in data set [5], −0.9; in data set [6], −0.6.

On to `Clc1ccc(C2CC3CCC2N3)cn1` (stereo not shown) [epibatidine], for which the EC50 in data set [7] (hα4β2) was 0.043 µM; in data set [8] (hα3β4), 0.151 µM. The “n H, Hill coefficient” value in data set [4] (hα4β2-WT nAChRs) worked out at 0.9; in data set [5] (hα4β2-F118L nAChRs) it was 0.8; in data set [6] (hα4β2-T58K nAChRs), 0.7.

On to `CNC1(C)C2CCC(C2)C1(C)C` (stereo not shown) [mecamylamine], for which the “n H, Hill coefficient” value in data set [4] (hα4β2-WT nAChRs) is −1.4; in data set [5] (hα4β2-F118L nAChRs), −1.1; in data set [6] (hα4β2-T58K nAChRs) it was −0.6. Further, the figures for the half-inhibitory concentration (IC50) in data set [4] (read-out: IC50), in data set [5] (read-out: IC50) and in data set [6] (read-out: IC50) were 0.2 µM, 0.4 µM and 0.2 µM, respectively.

Turning to `CN1CCC[C@H]1c1cccnc1` [nicotine], the concentration for a half-maximal effect (EC50) in data set [7] was 3.5 µM; in data set [8] it was 40.3 µM.
